Reference: patent US8212051B2, “Process for the preparation of pure irbesartan” (Lek Pharmaceuticals, D.D., priority 2006, dated 2012)
Where a name gives a salt, the structure may show the parent alone.

Key:
[1] = Stability against degradation when dissolved in hot mixture of solvents and extracted; format: physicochemical; settings: salt dissolved in hot mixture of solvents and extracted; compared with purification via HCl salt
[2] = Solubility in boiling acetone (amount of acetone needed to dissolve 1 g); format: physicochemical; settings: per 1 g substance

| Structure (SMILES) | stability against degradation [1] | amount of acetone needed to dissolve 1 g [2] |
| --- | --- | --- |
| CCCCC1=NC2(CCCC2)C(=O)N1Cc1ccc(-c2ccccc2-c2nnn[nH]2)cc1 [irbesartan HBr, hydrobromide acid addition salt of 2-n-butyl-3-[[2′-(tetrazol-5-yl)biphenyl-4-yl]methyl]-1.3-diazaspiro[4.4]non-1-en-4-one] | more stable against degradation | 6 mL |
| CCCCC1=NC2(CCCC2)C(=O)N1Cc1ccc(-c2ccccc2-c2nnn[nH]2)cc1 [irbesartan HCl] | – | 15 mL |
| CCCCC1=NC2(CCCC2)C(=O)N1Cc1ccc(-c2ccccc2-c2nnn[nH]2)cc1 [irbesartan, 2-n-butyl-3-[[2′-(tetrazol-5-yl)biphenyl-4-yl]methyl]-1.3-diazaspiro[4.4]non-1-en-4-one] | – | 100 mL |
